# Reference: patent US8815799B2, “Inhibiting striated muscle activator of RHO (stars) to improve glycemic control” (Joslin Diabetes Center, Inc., priority 2010, dated 2014)
# Entries after “also recorded” stand apart in the source; their conditions may differ.
# Legend:
# STARS = STARS expression in C2C12 myotubes after actin disruption; assay type: cell-based; conditions: disruption of actin
# From the text: Additional pathway analysis using MAPPFinder confirmed that serum response factor (SRF)-dependent and actin-related cytoskeleton gene expression is increased in diabetes, and more importantly, also in insulin resistance. The top-ranking single gene differentially expressed in skeletal muscle in the fasting state is the Actin-binding Rho activating protein (ABRA), or STARS, increased by 2.5 fold in individuals with type 2 diabetes (p<0.01). This gene regulates intracellular actin dynamics and subcellular localization of MKL1/2, thus contributing to SRF-dependent gene transcription. Since disruption of actin by latrunculin B increases STARS expression in C2C12 cells by 50% in C2C12 myotubes (p<0.03, not shown), it was hypothesize that increased STARS expression in DM may reflect disruption of actin dynamics and also contribute to the pattern of increased SRF-related gene expression. Similar patterns of SRF-dependent expression are also observed in adipose tissue from insulin resistant subjects and in insulin resistant muscle.
# Myc-GLUT4 L6 myotubes = experiment: Glucose uptake in Myc-GLUT4 L6 myotubes; assay type: cell-based
# Description: (§1) To determine whether increased expression of STARS can modulate glucose uptake, basal and insulin-stimulated glucose uptake in are measured in L6 myotubes overexpressing STARS (day 6 of differentiation). In brief, following overnight serum starvation, myotubes are treated with insulin (0 to 100 nM) for 20 minutes and then incubated with transport solution (140 mM NaCl, 20 mM Hepes, 5 mM KCl, 2.5 mM MgSO4, 1.0 mM CaCl2, 10 μM 2-deoxyglucose, 0.5 μCi/mL [^3H]-2-deoxyglucose) for 10 minutes. Cells are lysed in 0.05N NaOH and radioactivity determined by scintillation counting. All assays are performed in quadruplicate and corrected by uptake in cytochalasin-treated wells. Glucose transport assays are also performed in STARS-Myc-GLUT4 cells, given their higher insulin responsiveness.
# (§2) To address whether STARS and MKL1-dependent SRF transcriptional activity contribute to the pathophysiology of insulin resistance, experiments were performed to test whether modulation of STARS expression and/or SRF activation can improve key cellular phenotypes associated with insulin resistance, including insulin action and glucose uptake. L6 myotubes stably expressing Myc-GLUT4 were infected with an adenovirus containing a short hairpin targeting STARS, resulting in a 54% reduction in STARS protein expression; this was associated with a 3.7-fold increase in basal glucose uptake and a 3.6-fold increase in insulin-stimulated glucose uptake (FIG. 19A).
# To test the effect of reduced STARS expression (shRNA) and reduced SRF pathway activation (chemical inhibitor CCG-1423) in cultured myotubes, knock-down assays were performed. shSTARS target sequences (Forward 5′-[…] […] A-3′ (SEQ ID NO:1); Reverse 5′-[…] […] […]-3′ (SEQ ID NO:2)), or scrambled control (IDT RNA design), were cloned into pAdTrack-CMV adenoviral vector, and Myc-GLUT4 L6 myotubes were infected with amplified adenovirus (8×10^7 pfu/well, 6-well plate) at 3 days after differentiation. […] Thus, experimental reductions in STARS expression are associated with an increase insulin signaling and basal glucose uptake in cultured myotubes.
# Since genetic knockdown of STARS expression enhanced glucose transport, a key question is whether pharmacologic inhibition of SRF transcriptional activity would similarly modulate glucose transport. Studies with CCG-1423, an SRF transcriptional inhibitor identified by compound library screening, were performed. […] By comparison, insulin stimulated glucose uptake by 1.6-fold (p<0.01; FIG. 20).
# C2C12 myotubes = experiment: Deoxyglucose uptake in cultured myotubes (FIG. 11E); assay type: cell-based
# From the text: (§3) Since CCG-1423 increased insulin signalling in myotubes, we hypothesized that CCG-1423 might also enhance glucose uptake. In DMSO (vehicle)-treated myotubes, insulin stimulated a 2-fold increase in deoxyglucose uptake in a dose-dependent manner, consistent with prior reports and the low insulin responsiveness in cultured myotubes (FIG. 11E). […] In parallel, expression of the dominant glucose transporters GLUT4 and GLUT1 was increased by CCG-1423 treatment by 4.1 and 2.5 fold, respectively (p<0.004).
# as §1
# MKL1 = MKL1 cellular localization in C2C12 myoblasts; assay type: cell-based
# Description: Since MKL1 is known to shuttle between the cytosol and nucleus to modulate target gene expression (Vartiainen et al., Science. 316:1749-1752 (2007)), the possibility arises that MKL1 localization may differ in insulin resistant state as compared to the normal state. […] In the basal state, MKL1 predominantly localized to cytosol and partially in nucleus. After 30 minutes of serum stimulation, MKL1 translocated to the […]. […] To determine whether MKL1 and G actin complex formation is changed in insulin resistance, the nuclear and cytosolic fractions from C2C12 myotubes were co-immunoprecipitated with MKL1 and blotted with beta actin.
# To determine if the effects of CCG-1423 on SRF activity were mediated via MKL1 localization, MKL1 localization was assessed in C2C12 myoblasts treated with CCG-1423.
# GLUT4 = GLUT4 expression in myotubes; assay type: cell-based; conditions: myotubes treated with CCG-1423
# From the text: as §3, §2
# Akt = Akt phosphorylation (phosphoimmunoblot) in C2C12 myotubes; assay type: cell-based; conditions: for increase in insulin-stimulated Akt phosphorylation: C2C12 myotubes, overnight 1 μM CCG-1423
# Description: The next experiments were performed to determine whether SRF transcriptional activity, rather than expression of SRF itself, is important for maintaining appropriate insulin sensitivity. A new compound, CCG-1423, is available for specifically inhibiting SRF transcriptional activity (Evelyn et al., Mol. Cancer Ther. 6:2249-2260 (2007)). […] CCG-1423 was then evaluated to test the possibility that reducing SRF transcriptional activity improves insulin sensitivity. Indeed, this is the case.
# (§4) In parallel, CCG-1423 enhanced insulin action in C2C12 myotubes. Overnight treatment with 1 μM CCG-1423 increased insulin-stimulated Akt phosphorylation, both in the presence and absence of dexamethasone (41% for both, p=0.01 and p=0.007, respectively), while having no effect on p42/44 ERK phosphorylation (FIG. 11C).
# [1] = CCG-1423 treatment of high-fat diet-fed mice (glucose tolerance, insulin, body weight); assay type: in vivo
# Description: (§5) To examine the therapeutic potential of this SRF inhibitor in vivo, we assessed responses to CCG-1423 treatment in mice with diet-induced obesity. […] The HFD mice were administered CCG-1423 (0.15 mg/kg body weight intraperitoneally) for two weeks.
# In parallel, the high insulin levels associated with insulin resistance were normalized by CCG-1423 treatment (FIG. 13C).
# To test this hypothesis, mice are treated with CCG-1423 in 2 models of murine insulin resistance: (1) high-fat diet-fed C57BL/6J mice (60% of calories from fat), or (2) genetically obese ob/ob mice. For these studies, mice are injected with CCG-1423 0.15 mg/kg/day or vehicle (DMSO), intraperitoneally, for 2 weeks. Body weight and food intake are monitored daily.
# L6 myotubes = experiment: 2-deoxyglucose uptake in L6 myotubes (FIG. 11E legend); assay type: cell-based; conditions: CCG-1423 1 μM, 16 hours
# Description: FIG. 11E is a line graph showing that both basal and insulin-stimulated 2-deoxyglucose uptake are increased by >4-fold in L6 myotubes following CCG-1423, with enhanced insulin sensitivity (1 μM, 16 hours). * indicates p<0.05, **p<0.01,***p<0.001.
# as §1
# IRS-1 = IRS-1 tyrosine phosphorylation and association with p85 PI 3-kinase in myotubes; assay type: cell-based
# Description: FIG. 11D is a phosphoimmunoblot showing that CCG-1423 increases basal and insulin-stimulated tyrosine phosphorylation of IRS-1 and its association with p85-PI 3-kinase, in both control and DEX-treated myotubes. * indicates p<0.05, **p<0.01, ***p<0.001.
# as §4
# [2] = test system: SRF, ELK1, SRF targets (ZYX, PDLIM7); experiment: Gene expression in skeletal muscle of HFD mice treated with CCG-1423; assay type: in vivo
# Description: as §5
# p42/44 ERK = p42/44 ERK phosphorylation in C2C12 myotubes; assay type: cell-based; conditions: overnight 1 μM CCG-1423 (FIG. 11C)
# Description: as §4
# [3] = test system: SRF transcriptional activity; experiment: SRF transcriptional activity, 4x CArG (SRE) promoter luciferase reporter in C2C12 cells; assay type: cell-based; conditions: activity induced by serum, dexamethasone or insulin, CCG-1423 1 μM, 16 hours pre-treatment (FIG. 10, 11B)
# Description: FIG. 11B is a bar graph showing the effect of CCG on SRF transcriptional activity. 4× CArG promoter is activated in response to serum stimulation (FBS 2 hours, control) and following overnight treatment with 100 μM dexamethasone (DEX) in C2C12 myoblasts. This SRF-mediated transcriptional activity was blocked by pre-treatment with CCG-1423 (1 μM, 16 hours).
# To determine whether SRF transcriptional activity is also changed in insulin resistance, 4× tandem repeat of SRF binding element (SRE) CArG boxes (Kuwahara et al., Mol. Cell Biol. 25:3173-3181 (2005)) promoters linked to a luciferase gene were used as a reporter. […] These increases in SRF transcriptional activity in insulin resistant states could cause up-regulation of SRF target gene expression.
# GLUT1 = GLUT1 expression in myotubes; assay type: cell-based; conditions: myotubes treated with CCG-1423
# From the text: as §3, §2
# human myotubes = experiment: Basal glucose uptake in human myotubes from control and diabetic subjects; assay type: cell-based
# Description: The effects of CCG-1423 on human myotubes, and whether these effects would differ in myotubes derived from controls (n=2) vs. diabetic subjects (n=6), were also evaluated. […] The differential responsiveness in subjects with DM supports the concept that SRF pathways are more robustly activated in humans with insulin resistance and DM, and therefore potentially more sensitive to SRF inhibition.
# [4] = HFD mice, CCG-1423 0.15 mg/kg intraperitoneally, two weeks, vs vehicle-treated HFD mice, 0.15 mg/kg
# [5] = control and DEX-treated myotubes (FIG. 11D)
# [6] = CCG-1423 0.15 mg/kg intraperitoneally, two weeks
compound,measurement,setting,value
C/C1=C/C(=O)O[C@@H]2C[C@@H](CC[C@H](C)/C=C\CC1)O[C@@](O)([C@@H]1CSC(=O)N1)C2 [latrunculin B],increase in STARS expression,STARS,50%
insulin,insulin-stimulated glucose uptake,"Myc-GLUT4 L6 myotubes; Myc-GLUT4 L6 myotubes, insulin alone (FIG. 20)",1.6 fold
same,insulin-stimulated increase in deoxyglucose uptake,"C2C12 myotubes; DMSO (vehicle)-treated myotubes, dose-dependent",2 fold
CC(ONC(=O)c1cc(C(F)(F)F)cc(C(F)(F)F)c1)C(=O)Nc1ccc(Cl)cc1 (stereo not shown) [CCG-1423],MKL1 cytosol/nuclear localization,MKL1,almost exclusively localized to the cytoplasm; also recorded: reversed dexamethasone-induced MKL1 nuclear localization to partial cytoplasmic localization; also recorded: inhibition of MKL1 nuclear localization; also recorded: reduced nuclear translocation of MKL1
same,increase in GLUT4 expression,GLUT4,4.1 fold
same,increase in insulin-stimulated Akt phosphorylation,Akt; absence of dexamethasone,41%
same,increase in insulin-stimulated Akt phosphorylation,Akt; presence of dexamethasone,41%
same,insulin-stimulated Akt phosphorylation (marker of insulin sensitivity),"Akt; myotubes, with or without dexamethasone, insulin 100 nM, 10 minutes (FIG. 11A, 11C)",increased insulin-simulated Akt phosphorylation; also recorded: improves insulin-stimulated Akt phosphorylation; also recorded: increases insulin-stimulated Akt phosphorylation
same,serum insulin levels during glucose tolerance test,"[1]; HFD mice, 15 minutes after glucose injection, vs vehicle-treated HFD animals",normalized; also recorded: significantly reduced
same,body weight,[1]; [4],No significant change; also recorded: no differences; also recorded: not altered
same,food intake,[1]; [4],No significant change; also recorded: no differences
same,in vivo glucose tolerance (intraperitoneal glucose tolerance test),[1]; [4],significantly improved; also recorded: improves glucose tolerance; also recorded: improved in vivo glucose tolerance
same,adiponectin levels,"[1]; HFD mice, CCG-1423 two weeks",No differences
same,circulating fatty acid levels,"[1]; HFD mice, CCG-1423 two weeks",No differences
same,insulin tolerance testing,"[1]; HFD mice, CCG-1423 two weeks",No differences
same,glucose tolerance test area under the curve (AUC),"[1]; HFD mice, CCG-1423 two weeks, vs vehicle-treated HFD animals",significantly reduced
same,reduction of fed insulin levels,"[1]; HFD-fed mice, CCG-1423 0.15 mg/kg/day intraperitoneally, 2 weeks, vs HFD-fed mice",50%
same,basal and insulin-stimulated glucose uptake (figure legend),"Myc-GLUT4 L6 myotubes; Myc-GLUT4 L6 myotubes (FIG. 19A, FIG. 20)",increases basal and insulin-stimulated 2-deoxyglucose uptake
same,increase in basal glucose uptake,"Myc-GLUT4 L6 myotubes; Myc-GLUT4 L6 myotubes, CCG-1423 1 μM, 16 hours",1.9 fold
same,"increase in glucose uptake, combination with insulin","Myc-GLUT4 L6 myotubes; Myc-GLUT4 L6 myotubes, combination of CCG-1423 and insulin",2.6 fold
same,"increase in glucose uptake, basal state",C2C12 myotubes; myotubes incubated with CCG-1423 (FIG. 11E),4 fold
same,insulin-stimulated glucose uptake response,"C2C12 myotubes; myotubes incubated with CCG-1423, 1 μM insulin (FIG. 11E)",11.5 fold
same,increase in basal and insulin-stimulated 2-deoxyglucose uptake,L6 myotubes,> 4 fold
same,association of IRS-1 with p85 regulatory subunit of PI 3-kinase,IRS-1; [5],increases
same,basal and insulin-stimulated tyrosine phosphorylation of IRS-1,IRS-1; [5],increases
same,p85 expression,IRS-1; myotubes treated with CCG-1423,without altering
same,expression of ELK1,[2]; [6],did not alter
same,expression of SRF,[2]; [6],did not alter
same,"expression of SRF targets in skeletal muscle, e.g., ZYX and PDLIM7","[2]; CCG-1423 two weeks, vs vehicle-injected controls",significantly decreased
same,p42/44 ERK phosphorylation,p42/44 ERK,no effect; also recorded: minimal change
same,inhibition of SRF transcriptional activity / SRE promoter activity,[3],specifically blocks SRF transcriptional activity; also recorded: reduced SRE promoter activity and efficiently blocked both serum- and dexamethasone-stimulated activation; also recorded: reduces SRE promoter activity; also recorded: inhibits SRF activity
same,increase in GLUT1 expression,GLUT1,2.5 fold
same,"basal increase in glucose uptake, mean",human myotubes; human myotubes from control subjects (n=2),1.2 fold
same,"basal increase in glucose uptake, mean",human myotubes; human myotubes from diabetic subjects (n=6),3.2 fold
